The text below walks through data of article PMC9230645, “Discovery of GSK3β Inhibitors through In Silico Prediction-and-Experiment Cycling Strategy, and Biological Evaluation” (Molecules, 2022).

The structures appear in SMILES notation.

In test [1] the target is T1, GSK3β (Homo sapiens, UniProt P49841).
T1 construct: purchased Carna Biosciences
The experiment in a line: GSK3β kinase assay (TR-FRET / Lance HTRF). It counts as biochemical. Conditions: for inhibition at 0.5 µM: 0.5 μM compound; for inhibition at 5 µM: 5 μM compound; for IC50: Table 1, means ± SD (n = 2). On the technique in general: Time-resolved FRET reads energy transfer from a long-lived donor to a nearby acceptor.
Experimental: The GSK3β inhibitory activities of the virtually-selected 3000 compounds were screened by a Lance HTRF assay. At a concentration of 10 μM, the single-point screening signal-to-noise (S/N) ratio, Z factor, and Z’ factor of the assay was 7.3, 0.48 and 0.61, respectively.

The target of test [2] is T1, GSK3β. Briefly: Five-by-five-concentration kinetic analysis of GSK3β inhibition versus ATP (Lineweaver–Burk). It counts as biochemical.
Test [3] has as its target T1, GSK3β. Briefly: Reversibility assay (dilution method). To be noted: pre-incubated with 1 µM for 30 min, then diluted. It counts as biochemical. How it is done: Figure 3 In vitro assay. […] (b) Competitive inhibition by cpd1 and SB216873. Compounds were tested using 4-point 2-fold serial dilution, starting from 1 µM or 0.25 µM at 5 different concentration of ATP (200, 100, 50, 33.3, and 25 µM). (c) Reversibility test.
The in vitro enzyme TR-FRET (time-resolved fluorescence energy transfer) assays were performed in 384-well white plates (Greiner) at room temperature (25 °C) using an HTS system from Biomek FX (Beckman Coulter) and a Stella robot. The assay was performed in a final volume of 10 µL in a kinase buffer of 50 mM HEPES, pH 7.5, 1 mM EGTA, 10 mM MgCl2, 2 mM DTT, and 0.01% Tween-20. The 3000 virtually-selected compounds in the 5 mM DMSO stock were diluted into desired concentrations with kinase buffer. A total of 5 µL of GSK3β (Carna Biosciences, 0.5 ng/well) and 2.5 µL of compounds were added to the assay plates and, then, 2.5 µL of the ULight-GS Peptide (Ser641/pSer657, […](pS)ED, #TRF0131 PerkinElmer, 50 nM final concentration)/ATP mixture were added. […] After incubation for 1 h, the fluorescence signal was read in excitation at 320 nm with an emission at 665 nm with the Envision Multilabel Plate Reader (PerkinElmer). Experimental data from dose–response curves were analyzed by nonlinear regression analysis with GraphPad Prism, version 7.00 for Windows, and the IC50 values were obtained. […]

For test [4], the system named is Wnt/β-catenin signaling. The experiment in a line: HEK293 TOP flash reporter assay. Format: cell-based. Conditions: 5 µM, HEK293 TOP flash reporter cells, 18 h. How it is done: The pharmacologic inhibition of GSK3β’s activity can lead to β-catenin stabilization and subsequently activate Wnt/β-catenin signaling. To measure the inhibitory activities of the compounds selected in GSK3β enzyme-based high-throughput screening, these were treated in HEK293 TOP flash reporter cells at various concentrations.
The HEK293 reporter cells (HEK293 cells containing the chromosomally incorporated TOPflash gene) were provided by KY Choi (Yonsei University, Seoul, Korea). The HEK293 reporter cells were cultured in DMEM (Gibco) supplemented with 10% FBS (Gibco). To test the activates of GSK3β inhibition for hit compounds, HEK293 reporter cells were seeded into 96-well black polystyrene plates (Greiner Bio-One, Kremsmünster, Austria) at 1.5 × 10^4 cells per well and cultured for 24 h. Hit compounds, a positive control (CHIR99021, SelleckChem, Houston, TX, USA) or control (DMSO) were added to the wells at the indicated concentrations. After 18 h, the plates were assayed for firefly luciferase activity; relative reporter activity was determined after the data were normalized relative to the value of the WST-1 (Takara Korea Biomedical Inc., Seoul, Korea) cell viability analysis. Statistical analyses were performed using Prism 8 (GraphPad Software). […]
(Reporter assays use an easily measured gene product as a stand-in for the process of interest.)

T1 sequence (P49841 whole entry): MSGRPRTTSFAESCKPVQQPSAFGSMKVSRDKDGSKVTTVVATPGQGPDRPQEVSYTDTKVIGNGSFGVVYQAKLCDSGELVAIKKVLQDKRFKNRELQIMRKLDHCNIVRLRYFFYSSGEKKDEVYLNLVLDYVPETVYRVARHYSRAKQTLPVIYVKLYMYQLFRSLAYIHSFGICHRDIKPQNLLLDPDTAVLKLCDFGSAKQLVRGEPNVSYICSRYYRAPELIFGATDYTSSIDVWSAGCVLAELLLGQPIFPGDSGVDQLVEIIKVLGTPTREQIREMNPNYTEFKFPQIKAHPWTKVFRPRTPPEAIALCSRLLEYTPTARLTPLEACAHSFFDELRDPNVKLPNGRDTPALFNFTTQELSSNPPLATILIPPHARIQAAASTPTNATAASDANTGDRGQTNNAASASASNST

A word on the inhibition: it is how much of the control response was suppressed. Read a high inhibition as strong suppression. `Cn1cc(C2=C(c3ccc(Cl)cc3Cl)C(=O)NC2=O)c2ccccc21` [8 (SB216763), SB216763, reference compound]: in test [1], the inhibition at 0.5 µM came to 61% and the inhibition at 5 µM amounted to 100%.
What is called IC50 is the concentration that gives 50% inhibition. Read a high IC50 as a need for much substance. In test [1], `CCc1nccn1CCCNc1cc(-c2ccc(F)cc2)nc2ccnn12` [Compound 1, N-(3-(2-ethyl-1H-imidazol-1-yl)propyl)-5-(4-fluorophenyl)pyrazolo[1,5-a]pyrimidin-7-amine] gave an inhibition at 0.5 µM of 100%, an inhibition at 5 µM of 100% and a concentration for half-maximal inhibition (IC50) of 37 ± 6 nM. Moreover, the Ki in test [2] (5 ATP concentrations (200, 100, 50, 33.3, 25 µM), read-out: slope inhibition constant K is) was found to be 41.8 nM. For the same compound, the “inhibition pattern of GSK3β-catalyzed phosphorylation” value in test [2] (versus ATP) is on record as “competitive”. The enzyme-binding reversibility result in test [3] is on record as “reversible”. Moreover, the “TOP flash activity induction” value in test [4] is listed as 3.5 fold.
In test [1], `Cc1nc[nH]c1CSCCNc1cc(-c2ccccc2)nc2ccnn12` [Compound 2] showed an inhibition at 0.5 µM of 78%, an inhibition at 5 µM of 100% and a half-inhibitory concentration (IC50) of 211 ± 55 nM.
In test [1], `Cc1c(CNc2cc(-c3ccccc3F)nc3ccnn23)cnn1C` [Compound 4] had an inhibition at 0.5 µM of 57%, an inhibition at 5 µM of 96% and a half-inhibitory concentration (IC50) of 347 ± 56 nM.
For the compound `COCc1cc(NCc2nnn[nH]2)n2nccc2n1` [Compound 5], in test [1], the inhibition at 0.5 µM came out at 38%, the inhibition at 5 µM amounted to 95% and the IC50 is 701 ± 118 nM.
With `CCc1cc(NCc2scnc2-c2ccccc2)n2nccc2n1` [Compound 6], in test [1], testing at 0.5 µM gave an inhibition of 45%, testing at 5 µM gave an inhibition of 91% and the IC50 turned out to be 730 ± 113 nM.
In test [1], `Cc1cc(NCCCNc2cccnc2)n2nccc2n1` [Compound 7] gave an inhibition at 0.5 µM of 30%, an inhibition at 5 µM of 90% and an IC50 of 1030 ± 66 nM.
